In PMC7892475, “C-Terminal Amination of a Cationic Anti-Inflammatory Peptide Improves Bioavailability and Inhibitory Activity Against LPS-Induced Inflammation” (Frontiers in Immunology, 2021):
“Also recorded” adds a separate entry of the source. Ends that are not written are not given here.

T1: TLR4/MD-2 complex (Mus musculus, UniProt Q9QUK6)
T1 chain 1: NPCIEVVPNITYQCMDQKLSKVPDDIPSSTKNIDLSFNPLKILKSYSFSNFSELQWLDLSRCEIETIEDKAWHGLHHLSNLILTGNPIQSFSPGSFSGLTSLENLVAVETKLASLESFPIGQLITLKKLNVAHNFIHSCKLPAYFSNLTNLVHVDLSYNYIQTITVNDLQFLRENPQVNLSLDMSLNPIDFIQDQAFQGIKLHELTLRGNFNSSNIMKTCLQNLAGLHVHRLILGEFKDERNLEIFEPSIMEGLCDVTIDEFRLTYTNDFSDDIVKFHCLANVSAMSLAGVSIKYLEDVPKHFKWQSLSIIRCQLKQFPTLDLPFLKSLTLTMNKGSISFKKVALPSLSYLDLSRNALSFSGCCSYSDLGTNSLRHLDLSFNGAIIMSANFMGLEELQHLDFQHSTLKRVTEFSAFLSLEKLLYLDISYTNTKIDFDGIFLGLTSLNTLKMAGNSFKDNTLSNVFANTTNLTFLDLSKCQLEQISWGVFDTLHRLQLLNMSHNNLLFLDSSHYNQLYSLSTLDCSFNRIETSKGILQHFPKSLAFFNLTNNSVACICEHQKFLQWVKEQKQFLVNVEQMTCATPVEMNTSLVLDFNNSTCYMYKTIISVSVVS
T1 chain 2: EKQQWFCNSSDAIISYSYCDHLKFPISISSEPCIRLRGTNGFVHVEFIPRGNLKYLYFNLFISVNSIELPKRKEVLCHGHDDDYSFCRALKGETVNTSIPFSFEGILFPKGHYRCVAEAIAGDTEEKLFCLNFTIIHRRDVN

B1: CTP-NH2 (CATH2(1-13)-TP5 hybrid peptide, C-terminal amide) (peptide)
chain: RWGRFLRKIRRFRRKDVT-NH2
B2: CTP (CATH2(1-13)-TP5 hybrid peptide) (peptide)
chain: RWGRFLRKIRRFRRKDVT

Assays:
[1] = Reverse-phase HPLC retention time as measure of peptide hydrophobicity; type: physicochemical; details: HPLC on reverse-phase matrix, aqueous solution; used by the paper as measure of hydrophobicity
Text: The retention time of peptides on a reverse-phase matrix has been reported to be related to peptide hydrophobicity ([34]).

[2] = system: LPS-stimulated RAW264.7 cells; assay: Anti-inflammatory assay in LPS-stimulated RAW264.7 cells (ELISA of cytokines); type: cell-based, mouse; details: 10 μg/ml peptide 30 min before 100 ng/ml LPS, 12 h, 37°C, ELISA of supernatant
Protocol: RAW264.7 cells were treated with or without 10 μg/ml peptides for 30 min before the addition of 100 ng/ml LPS (E. coli, O55:B5, Sigma-Aldrich, Germany) and further incubation for 12 h at 37°C After treatment, the concentrations of TNF-α, IL-6, and IL-1β in the cell supernatants were assessed.
(§1) The levels of tumor necrosis factor (TNF)-α, interleukin (IL)-6, and IL-1β in cell culture supernatants and the levels of TNF-α, IL-6, and IL-1β in the serum of mice were detected using commercial ELISA kits (eBioscience, San Diego, USA) according to the manufacturer’s instructions. The levels of serum alanine amino transferase (ALT) and aspartate amino transferase (AST) were detected using commercial reagent kits (Nanjing Jiancheng Bioengineering Institute, Nanjing, China). The activity of myeloperoxidase (MPO) in the liver of mice was detected using an ELISA kit (Boster, Wuhan, China) according to the manufacturer’s instructions.

RAW264.7 cells [3] = assay: CCK-8 cell viability assay; type: cell-based, mouse; details: RAW264.7 macrophages, CCK-8, 0 to 80 μg/ml, 24 h or 72 h, 37°C
Protocol: The viability of peptide-treated RAW264.7 cells was determined using a Cell Counting Kit-8 (CCK-8) Assay Kit (Dojindo) ([35]). RAW264.7 cells were plated in 96-well plates at a density of 3×10^4 cells/ml in 100 μl DMEM overnight. The cell culture medium was then supplemented with fresh medium containing candidate peptides in a series of concentrations, and the plates were incubated for another 24 h or 72 h. Each well was incubated with 10 μl CCK-8 solution for 4 h in the dark. Afterwards, the absorbance at 450 nm was measured using a microplate reader. Cell viability was determined by:
Cell viability (%)=(OD450sample/OD450(control))×100%

RAW264.7 cells [4] = assay: Cellular uptake and localization of FITC-labeled peptides (confocal microscopy, flow cytometry); type: cell-based, mouse; details: N-terminus FITC-labeled peptide, 10 μg/ml, 24 h, 37°C, confocal microscopy and flow cytometry (average FITC intensity)
Protocol: RAW264.7 cells were treated with N-terminus FITC-labeled peptides at 10 μg/ml for 24 h at 37°C; in the dark. Then, the RAW264.7 cells were rinsed with PBS three times, fixed with paraformaldehyde and washed with PBS. The cell nuclei were stained with DAPI (diluted 1:500 in PBS) (Sigma, USA) for 5 min, and the cells were washed with PBS. The above cells were spread on a glass slide, fixed and observed with a Leica TCA sp5 confocal microscope (Germany).
RAW264.7 cells were stained with 10 μg/ml N-terminus FITC-labeled peptides at 37°C in the dark for 24 h. Afterwards, the RAW264.7 cells were harvested and rinsed with PBS five times. The average FITC intensity in the cells was measured via flow cytometry.

TLR4/MD-2 complex [5] = assay: Surface plasmon resonance binding; details: SPR, Biacore X100, PBS with 0.05% Tween 20, 30 μl/min, 1:1 model, 0 to 10 μM
Protocol: SPR assays were performed using a Biacore X100 instrument (GE Healthcare, Pittsburgh, PA, USA). PBS containing 0.05% Tween 20 was used as the running buffer. The running buffer was continuously passed into the reaction chamber at 30 μl/min. Immobilization of CTP-NH2 on the chip surface was performed according to an amino coupling protocol. […] Running buffer was injected into the empty channel as a reference. To regenerate the chip surface at the end of each experiment, 10 mM Gly-HCl buffer (pH 2.5) was injected. ProteOn manager software (version 2.0) was used to analyze the experimental data. The binding curves were processed for the start injection alignment and baseline. A reference-subtracted sensorgram was then fitted to the curves describing a homogeneous 1:1 model. Data from the protein surfaces were grouped together to fit the association kinetic rate constant (Ka) and the dissociation rate constant (Kd). The equilibrium dissociation constant (KD) for the peptide-TLR4/MD-2 interaction was calculated as follows: […]

[6] = LPS neutralization, chromogenic end-point Tachypleus Amebocyte Lysate (TAL) assay; type: binding, E. coli
Protocol: The neutralization of LPS by the peptides was assessed through a quantitative Chromogenic End-point Tachypleus Amebocyte Lysate (CE TAL) assay using a QCL-1000 kit (XIAMEN BIOENDO TECHNOLOGY CO., China). LPS (E. coli, O111:B4, Sigma-Aldrich, USA) at a final concentration of 1.0 U/ml was incubated with various concentrations of the peptides (0 to 64 μg/ml final concentration) at 37°C for 15 min. Afterwards, the mixtures were incubated with TAL assay reagent at 37°C; for 6 min, and the absorbance was measured at 540 nm.

[7] = system: LPS-stimulated RAW264.7 cells; assay: Time of addition experiment (peptide pretreatment, LPS neutralization, post-treatment) in RAW264.7 cells; type: cell-based, mouse; details: ELISA
Protocol: To identify the mechanisms underlying the anti-inflammatory effects, three different types of treatments were performed as follow.
Briefly, 10 μg/ml peptide was added to the cell culture medium and incubated with cells for 1 h at 37°C Afterwards, the RAW 264.7 cells were washed with PBS and cultured with fresh medium containing 100 ng/ml LPS for 12 h at 37°C. After treatment, TNF-α, IL-6, and IL-1β secretion in the cell supernatants was assessed.
The peptides (10 μg/ml) were incubated with 100 ng/ml LPS directly for 1 h at 37°C. RAW 264.7 cells were stimulated with these mixtures for 12 h at 37°C. Afterwards, the TNF-α, IL-6 and IL-1β levels in the cell supernatants were assessed.
Briefly, 100 ng/ml LPS was added to the cell culture medium and incubated with cells for 1 h at 37°C. Afterwards, the RAW 264.7 cells were washed with PBS and cultured with fresh medium containing 10 μg/ml peptides for 12 h at 37°C. Afterwards, the TNF-α, IL-6, and IL-1β levels in the cell supernatants were assessed.
as §1

TLR4/MD-2 complex [8] = target: T1, TLR4/MD-2 complex; assay: SPR

Molecule	Retention time [1] [min]	TNF-α, IL-6 and IL-1β secretion levels [2]	cytotoxicity (comparison in words) (RAW264.7 cells [3])	cellular uptake and localization (RAW264.7 cells [4])	Ka (association kinetic rate constant) (TLR4/MD-2 complex [5]) [M⁻¹ s⁻¹]	50% binding rate value (LPS neutralization) ([6]; LPS 1.0 U/ml with 0 to 64 μg/ml peptide, 37°C 15 min, TAL reagent 6 min, absorbance 540 nm)	LPS neutralization activity ([6]; chromogenic TAL assay, LPS 1.0 U/ml, 0 to 64 μg/ml peptide)	TNF-α and IL-6 level, peptide used to pretreat cells or added after LPS induction ([7]; 10 μg/ml peptide 1 h then wash and 100 ng/ml LPS 12 h, or LPS 1 h, wash, then peptide 12 h)	TNF-α and IL-6 release, peptide incubated with LPS ([7]; 10 μg/ml peptide incubated with 100 ng/ml LPS 1 h at 37°C, mixture on cells 12 h)	Kd (TLR4/MD-2 complex [8]) [nM]
RWGRFLRKIRRFRRKDVT [CTP]	10.94	enhanced inhibitory activity against LPS-induced inflammation	lower cytotoxicity than the parental peptide (CATH2) but higher cytotoxicity than TP5	rarely entered RAW264.7 cells	1.34e+07	approximately 45.32 ± 5.19 μg/ml	inhibited activation of LPS in a dose-dependent manner	scarcely reduced the elevation in the pro-inflammatory cytokines TNF-α; also recorded: barely exerted such effects	potent inhibition of pro-inflammatory cytokine release	
B1										947
B2										1400
